Legend:
canine cardiac PDE, CAM = test: Canine cardiac PDE inhibition, CAM; assay type: biochemical; conditions: n in table
canine cardiac PDE, CGI = biological target: T1, canine cardiac PDE, CGI (Canis lupus familiaris, UniProt A0A8I3NYE0); test: Canine cardiac PDE inhibition, CGI; assay type: biochemical; conditions: n in table
T1 construct: CANINE CARDIAC PDE; from tissue; host or cells: dog heart
T1 sequence (A0A8I3NYE0 1-1135): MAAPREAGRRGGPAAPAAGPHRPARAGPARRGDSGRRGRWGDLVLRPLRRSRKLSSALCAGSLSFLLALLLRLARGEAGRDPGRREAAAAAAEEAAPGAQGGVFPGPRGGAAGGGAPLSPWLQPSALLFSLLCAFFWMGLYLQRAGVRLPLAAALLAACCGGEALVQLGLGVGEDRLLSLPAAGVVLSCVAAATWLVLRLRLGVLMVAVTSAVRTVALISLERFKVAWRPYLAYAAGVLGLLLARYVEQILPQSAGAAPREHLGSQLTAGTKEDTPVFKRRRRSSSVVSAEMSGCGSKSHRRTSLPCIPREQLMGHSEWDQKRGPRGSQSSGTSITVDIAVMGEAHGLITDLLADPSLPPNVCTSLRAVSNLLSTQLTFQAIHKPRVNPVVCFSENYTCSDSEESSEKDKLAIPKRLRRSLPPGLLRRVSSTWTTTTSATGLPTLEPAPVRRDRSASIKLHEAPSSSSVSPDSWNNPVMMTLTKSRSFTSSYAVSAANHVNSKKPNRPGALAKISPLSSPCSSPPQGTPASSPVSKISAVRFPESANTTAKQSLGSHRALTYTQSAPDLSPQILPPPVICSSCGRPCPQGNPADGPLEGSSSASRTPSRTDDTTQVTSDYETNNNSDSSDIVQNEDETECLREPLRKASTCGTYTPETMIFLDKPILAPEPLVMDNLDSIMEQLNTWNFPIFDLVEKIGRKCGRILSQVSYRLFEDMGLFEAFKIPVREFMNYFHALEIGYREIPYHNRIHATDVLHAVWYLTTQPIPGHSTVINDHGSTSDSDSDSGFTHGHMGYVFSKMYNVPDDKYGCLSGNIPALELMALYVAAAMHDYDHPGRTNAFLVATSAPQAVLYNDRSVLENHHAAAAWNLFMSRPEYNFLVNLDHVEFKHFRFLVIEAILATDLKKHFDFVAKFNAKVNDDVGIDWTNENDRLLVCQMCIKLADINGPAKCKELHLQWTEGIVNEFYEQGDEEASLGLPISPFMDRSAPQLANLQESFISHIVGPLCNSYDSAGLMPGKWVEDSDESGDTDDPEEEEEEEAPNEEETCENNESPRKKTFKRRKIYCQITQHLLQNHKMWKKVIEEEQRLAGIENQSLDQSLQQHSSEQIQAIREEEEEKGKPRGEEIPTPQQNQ

[1] = system: canine cardiac myofibrillar Ca++-dependent Mg++-ATPase; test: Measurement of myofibrillar Ca++-dependent Mg++-ATPase activity on canine cardiac myofibrils; assay type: biochemical; conditions: 30 μM, pH 7.0, 21° C.; for max (percent change of maximal ATPase activity): pCa=5.47
Experimental: 1. Measurement of myofibrillar Ca++-dependent Mq++-ATPase activity The effect on myofibrillar Ca++sensitivity and on maximal activity of myofibrillar Ca++-dependent Mg++-ATPase was determined on canine cardiac myofibrils. (a) Contractile protein preparation Cardiac myofibrils free of membrane contaminants were prepared from left ventricular tissue of dog hearts using a modification of the method described by SOLARO et al, Biochem. Biophys. Acta, 245, 259-262, (1971). Before centrifugation, the heart homogenate was filtered through gauze. After Triton X-100 treatments, the myofibrillar fraction was washed once by resuspension and centrifugation in 10 volumes of 1 mM EGTA, […], 30 mM imidazole, 2 mM MgCl2, pH 7.0. The pellet was then washed three times in 10 volumes of the same buffer without EGTA. Before the last centrifugation, the suspension of myofibrils was filtered through a stainless steel sieve with 0.25 mm meshes. Myofibrils were kept in pellet overnight. Before use, the pellet was suspended in a small amount of buffer, the protein concentration was determined by the method of BRADFORD M., Anal. Biochem., 1976, 72, 248 and adjusted in order to have a concentration between 6 and 7 mg/ml. (b) Myofibrillar ATPase activity Ca++-dependent myfibrillar ATPase activity was determined at 21° C., pH 7.0, by measuring the rate of release of inorganic phosphate. All assays were performed within 24hrs. of final purification, using the method described by SOLARO and […]., 51. 290-4,(1982). Reaction mixtures (4 ml) containing 0.6-0.7 mg/ml myofibrillar protein, 80mM KCl, 20 mM imidazole, 3 mM MgCl2, 1 mM EGTA, the desired amount of CaCl2, and the indicated concentration of drug or appropriate vehicle were preincubated for 6 min. prior to assay. The amount of CaCl2 was varied between 0 and 0.9 mM and the pCa (-log free Ca++) computed using 2.514×10^6 M^-1 as the apparent affinity of Ca++for EGTA at pH 7.0. Reactions were initiated by the addition of Na2 ATP to final concentration of 2 mM. After an incubation period of 12 min., reactions were quenched by the addition of an equal volume of ice-cold 10% trichloroacetic acid. The protein was pelleted by centrifugation (2000 g, 15 min.) and Pi was assayed in the supernatant fraction using a modification of the method described by LANZETTA et al, Anal. Biochem., 100, 95-97, (1979). The following solutions were prepared: (1) 3.7% ammonium heptamolybdate in 0.12 N H2 SO4 (2) 0.074% malachite green oxalate in 1% polyvinylic alcohol. The colour reagent was prepared by mixing an equal volume of solution (1) and (2) 15 min. before the assay. For the assay, 1,700 μl of 1% H2 SO4 and 1 ml of colour reagent were added to 100 μl of sample. Colour development occurred at room temperature for 30 min. and was quenched by the addition of 200 μl of 1M tri-potassium citrate. The absorbance was measured at 620 millimicrons. The effect of each compound, tested at the indicated concentration, on the relation between pCa and percent activation was determined taking 100% for the maximum ATPase activity obrained with vehicle alone. The effect on Ca++sensitivity was quantified by measuring the shift of the pCa giving 50% of the maximal control ATPase activity. The effect on maximal ATPase activity was expressed as the percent change of ATPase activity for pCa=5.47. Mean effects on myofibrillar ATPase activity were obtained from 1 to 5 preparations, (compounds tested at 2×10^-4 M).

anaesthetised dog = test: Cardiotonic activity in the dog (haemodynamics); assay type: in vivo, dog (male Beagle); conditions: i.v.

| Compound | IC50 (canine cardiac PDE, CAM) | IC50 (canine cardiac PDE, CGI) | max (percent change of maximal ATPase activity) [1] | pCa (shift of the pCa giving 50% of the maximal control ATPase activity; Ca++ sensitivity) [1] | other results |
| --- | --- | --- | --- | --- | --- |
| CC1SC(=O)NN=C1c1ccc2c(c1)C(=Cc1ccncc1)C(=O)N2 (stereo not shown) [Example 18] | 4 µM | 1.9 µM | -28 ± 4% | +0.04 ± 0.08 | – |
| CC1SC(=O)NN=C1c1ccc2c(c1)C(=NNC(=N)N)C(=O)N2 (stereo not shown) [Example 12, 5-(3,6-Dihydro-6-methyl-2-oxo-2H-1,3,4-thiadiazin-5-yl) -1H-indole-2,3-dione 3-[2-(aminomethanimino)hydrazone]] | – | 1.8 µM | -1 ± 2% | +0.08 ± 0.02 | – |
| CC1SC(=O)NN=C1c1ccc2c(c1)C(=Nc1ccc(N(C)C)cc1)C(=O)N2 (stereo not shown) [Example 14, 1,3-Dihydro-5-(3,6-dihydro-6-methyl-2-oxo-2H-1,3,4-thiadiazin-5-yl)-3-(4-dimethylaminophenylimino)-2H -indol-2-one] | 5.6 µM | 0.62 µM | 0 ± 3% | +0.12 ± 0.02 | – |
| CC1SC(=O)NN=C1c1ccc2c(c1)C(=NNC1=NCCN1)C(=O)N2 (stereo not shown) [Example 13] | – | 14 µM | 2 ± 2% | +0.07 ± 0.02 | – |
| CC1SC(=O)NN=C1c1ccc2c(c1)C(=NNc1ccccc1C(F)(F)F)C(=O)N2 (stereo not shown) [Example 31, 5-(3,6-Dihydro-6-methyl-2-oxo-2H-1,3,4-thiadiazin-5-yl) -1H-indole-2,3-dione 3-[(2-trifluoromethyl)phenylhydrazone]] | – | – | 26 ± 7% | +0.43 ± 0.04 | AoBF (anaesthetised dog; 0.01 mg/kg): +11 ± 5%; AoBP (anaesthetised dog; 0.01 mg/kg): -8 ± 1%; H.R. (anaesthetised dog; 0.01 mg/kg): +8 ± 2%; dP/dt Max (anaesthetised dog; 0.01 mg/kg): +9 ± 3%; AoBF (anaesthetised dog; 0.03 mg/kg): +19 ± 8%; AoBP (anaesthetised dog; 0.03 mg/kg): -15 ± 1%; H.R. (anaesthetised dog; 0.03 mg/kg): +30 ± 4%; dP/dt Max (anaesthetised dog; 0.03 mg/kg): +44 ± 13%; AoBF (anaesthetised dog; 0.1 mg/kg): +13 ± 6%; AoBP (anaesthetised dog; 0.1 mg/kg): -23 ± 2%; H.R. (anaesthetised dog; 0.1 mg/kg): +39 ± 6%; dP/dt Max (anaesthetised dog; 0.1 mg/kg): +93 ± 13% |
| CC1SC(=O)NN=C1c1ccc2c(c1)C(=C(C#N)C#N)C(=O)N2 (stereo not shown) [Example 9, [5-(3,6-Dihydro-6-methyl-2-oxo-2H-1,3,4-thiadiazin-5-yl) -1,2-dihydro-2-oxo-3H-indol-3-ylidene]-propane-dinitrile] | 31 µM | 2.1 µM | -20 ± 3% | +0.05 ± 0.07 | – |
| CC1SC(=O)NN=C1c1ccc2c(c1)C(=Cc1ccccc1)C(=O)N2 (stereo not shown) [Example 10, 1,3-Dihydro-5-(3,6-dihydro-6-methyl-2-oxo-2H-1,3,4-thiadiazin-5-yl)-3-phenylmethylene-2H-indol-2-one] | 20 µM | 0.35 µM | -13 ± 3% | +0.43 ± 0.07 | – |
| CC1SC(=O)NN=C1c1ccc2c(c1)C(=NNC(N)=S)C(=O)N2 (stereo not shown) [Example 4, 2-[2,3-Dihydro-5-(3,6-dihydro-6-methyl-2-oxo-2H-1,3,4-thiadiazin-5-yl)-2-oxo-1H-indol-3-ylidene]-hydrazine carbothioamide] | > 300 µM | 0.44 µM | – | – | – |
| CC1SC(=O)NN=C1c1ccc2c(c1)C(=NNc1c(F)c(F)c(F)c(F)c1F)C(=O)N2 (stereo not shown) [Example 32, 5-(3,6-Dihydro-6-methyl-2-oxo-2H-1,3,4-thiadiazin-5-yl) -1H-indole-2,3-dione 3-(pentafluorophenylhydrazone)] | – | – | -1 ± 7% | +0.10 ± 0.04 | – |
| CC1SC(=O)NN=C1c1ccc2c(c1)C(=NNc1ccc(C(C)(C)C)cc1)C(=O)N2 (stereo not shown) [Example 24, 5-(3,6-Dihydro-6-methyl-2-oxo-2H-1,3,4-thiadiazin-5-yl) -1H-indole-2,3-dione 3-[4-(1,1-dimethylethyl)phenylhydrazone]] | – | – | -2 ± 5% | +0.49 ± 0.06 | – |
| CC1SC(=O)NN=C1c1ccc2c(c1)C(=Cc1ccccc1[N+](=O)[O-])C(=O)N2 (stereo not shown) [Example 16, 1,3-Dihydro-5-(3,6-dihydro-6-methyl-2-oxo-2H-1,3,4-thiadiazin-5-yl)-3-(2-nitrophenylmethylene)-2H-indol-2-one] | – | – | 1 ± 4% | +0.17 ± 0.03 | – |
| COc1ccc(NN=C2C(=O)Nc3ccc(C4=NNC(=O)SC4C)cc32)cc1 (stereo not shown) [Example 28, 5-(3,6-Dihydro-6-methyl-2-oxo-2H-1,3,4-thiadiazin-5-yl) -1H-indole-2,3-dione 3-[(4-methoxy)phenylhydrazone]] | – | – | 20 ± 5% | +0.94 ± 0.05 | – |
